Several values for one entry are separate records, joined by “and”; a condition that tells them apart may be missing. Identical values can stand only once. Like-named read-outs stand apart in the source and are kept apart here.
Columns and labels:
[1] = Stopped-flow kinetics of NO binding at −85° C. in methanol; conditions: NO 6.4 mM
From the text: (§1) Stopped-flow Spectroscopy and Data analysis.

[2] = cited from earlier work; for second order rate constant k of NO binding: 20° C., stopped-flow with laser flash photolysis
[3] = Catalytic oxidation of methanol to formaldehyde with α-KG and O2 (Nash assay); conditions: for Total TON / TON: Methanol; for TON: product Formaldehyde
[4] = Reactivity with α-KG, O2 and cyclooctane (GC-MS); conditions: Cyclooctane
Experimental: (§2) Reactivity Studies. […] (10-20 mM).

[5] = Reactivity with α-KG, O2 and 2,4-di-tert-butyl phenol (GC-FID); conditions: O2, [Fe] 9.6 μM
Experimental: as §2

[6] = Reactivity with α-KG, O2 and 9,10-dihydroanthracene (GC-FID); conditions: O2, [Fe] 10.1 μM
Experimental: as §2
(17) with α-KG, 02, and 9,10-dihydroanthracene.

[7] = Cyclic voltammetry, redox potentials; format: physicochemical
From the text: All reagents and solvents used were purchased from commercial sources and used as received unless otherwise noted. Prior to use, methanol (Pharmco-Aaper) was distilled over magnesium metal, dimethyl sulfoxide (Fisher Scientific) was distilled over calcium hydride, triethylamine was distilled over sodium metal and unstabilized dichloromethane (Fisher Scientific) was distilled over calcium hydride. Ferrocene was purified by sublimation for use as a reference for electrochemical analyses. All manipulations involving ferrous complexes were carried out in an inert atmosphere glovebox (M. Braun, Stratham, N.H.) with distilled and thoroughly degassed solvents. UV/Vis spectra were collected using a Hewlett Packard Spectrometer (8453). IR spectra were collected using a Thermo Nicolet AVATAR 330-FT-IR. Cyclic voltammetry experiments were performed using a Princeton Applied Research model 273 potentiostat with a glassy carbon working electrode, a silver wire reference electrode and a platinum wire counter electrode. Electron Paramagnetic Resonance (EPR) spectra were collected on a Bruker ESP-300E spectrometer operating at 9.460 GHz. NMR spectra were recorded at 25° C. using a Varian spectrometer operating at 400 MHz with all chemical shifts referenced to SiMe4. Iron concentrations were determined using a Varian AA240Z Atomic Absorption Spectrometer.
Cyclic voltammetry was performed inside an inert atmosphere (N2) box, with degassed DMSO as the solvent and tetra-N-butylammonium hexafluorophosphate as the supporting electrolyte (0.2M). The ferrocenium/ferrocene couple was used as an internal reference; reduction potential values were corrected by assigning the ferrocenium/ferrocene couple to 0.64 V versus NHE (Zanello, P. Inorganic Electrochemistry; The Royal Society of Chemistry: Cambridge, 2003). Chloride titration experiments were performed by collecting CV data after the addition of one and two 50 μL aliquots of 204 mM [NEt4][Cl] to 3.0 mL of 3.4 mM [Fe^II(N2O1py)(Cl)2]^− (concentration determined using flame atomic absorption spectroscopy) and correcting the potential with reference to the ferrocenium/ferrocene couple.
It should be noted that these redox potentials were determined in the absence of excess halide, and further CV studies will be performed in the presence of excess halide for all derivatives of the N2O1py system.

[8] = Room temperature O2 reactivity of ferrous complexes followed by UV/vis
Experimental: The solution was transferred to an anaerobic UV/vis cell and sealed. An initial spectrum was obtained of the ferrous complex, and then the solution was exposed to the air. Spectra were recorded every minute for the first two minutes and then every 5-30 minutes after that for seven hours. The absorbance was monitored at 350 nm to follow formation of the oxidized complex.
This solution was then transferred to an anaerobic UV/vis cell and sealed. An initial spectrum was obtained of the ferrous complex, and then the solution was exposed to the air. Spectra were collected every minute for the first 30 minutes and then every 5-20 minutes after that for 2 hours. The absorbance was monitored at 315 nm to follow formation of the oxidized complex.

[9] = cited from earlier work
[10] = Reactivity with α-KG, O2 and cyclohexene (GC); conditions: Cyclohexene
[11] = Low-temperature stopped-flow kinetics of binding of α-KG to 17; conditions: 17 + α-KG
[12] = Low-temperature stopped-flow kinetics of binding of p-CH3-BF to 17; conditions: 17 + p-CH3-BF
[13] = estimated value for the functional group; cited from earlier work
[14] = Low-temperature stopped-flow kinetics of adduct complexes with dioxygen; conditions: complex 0.94-1.1 mM, O2 5 mM, methanol, −85° C.
Experimental: as §1
Kinetic studies of [Fe^II(N2O1)(α-KG)(CH3OH)]^− and [Fe^II(N2O1)(p-X-BF)(CH3OH)]^− adduct complexes with dioxygen. Low-temperature stopped flow studies of this reaction were performed.
Order dependence analysis.
The kinetic model was built by starting from simple two- and three-exponential processes.
Stoichiometry of the equations for the proposed model in FIG. 29: […]

[15] = DMSO, glassy carbon working electrode, absence of excess halide
[16] = calculated from redox potentials for the one-electron transfer between iron and dioxygen

Compound: O.O.O=C([O-])CN(CCN(CC(=O)[O-])CC(=O)O)CC(=O)[O-].[Cl-].[K+].[Ru+3] [K[Ru^III(Hedta)Cl].2H2O]
- k20 (loss of a ligand before NO binding) [1]: 8.2 s⁻¹
- k21 (second order, NO binding) [1]: 127 M⁻¹ s⁻¹
- rate k of reaction with NO ([2]; room temperature, aqueous solution, depending on pH): 38000 to 120000 M⁻¹ s⁻¹

Compound: CN(C)CCN(C)CC(=O)[O-].[Cl-].[Cl-].[Fe+2].[Na+] [compound 17, [Fe^II(N2O1)Cl2][Na]]
- Total TON ([3]; O2, [Fe] 1.0 μM): 285
- TON ([3]; O2, [Fe] 1.0 μM): 285
- Total TON ([3]; O2, [Fe] 6.2 μM): 54
- TON ([3]; O2, [Fe] 6.2 μM): 54
- Total TON ([3]; O2, [Fe] 8.0 μM): 36
- TON ([3]; O2, [Fe] 8.0 μM): 36
- Total TON ([3]; O2, [Fe] 12.5 μM): 22
- TON ([3]; O2, [Fe] 12.5 μM): 22
- Total TON ([3]; O2, [Fe] 100 μM): 3.5
- TON ([3]; O2, [Fe] 100 μM): 3.5
- Total TON ([3]; O2, [Fe] 200 μM): 2.1
- TON ([3]; O2, [Fe] 200 μM): 2.1
- Total TON ([3]; O2, [Fe] 300 μM): 1.3
- TON ([3]; O2, [Fe] 300 μM): 1.3
- Total TON ([3]; O2, [Fe] 500 μM): 0.82
- TON ([3]; O2, [Fe] 500 μM): 0.82
- Total TON ([3]; O2, [Fe] 2500 μM): 0.46
- TON ([3]; O2, [Fe] 2500 μM): 0.46
- Total TON ([3]; O2, [Fe] 5000 μM): 0.39
- TON ([3]; O2, [Fe] 5000 μM): 0.39
- Total TON ([4]; Air, [Fe] 1.1 μM): 317
- TON ([4]; Air, [Fe] 1.1 μM, product Cyclooctanol): 189
- TON ([4]; Air, [Fe] 1.1 μM, product Cyclooctanone): 64
- Total TON ([4]; O2, [Fe] 1.1 μM): 305
- TON ([4]; O2, [Fe] 1.1 μM, product Cyclooctanol): 182
- TON ([4]; O2, [Fe] 1.1 μM, product Cyclooctanone): 62
- Total TON ([4]; O2, [Fe] 9.7 μM): 40
- TON ([4]; O2, [Fe] 9.7 μM, product Cyclooctanol): 24
- TON ([4]; O2, [Fe] 9.7 μM, product Cyclooctanone): 7.8
- Total TON [5]: 619
- TON ([5]; product 3,3′-5,5′-terta-t-butyl-2,2′-dihydroxybiphenyl): 619
- Total TON [6]: 128
- TON ([6]; product Anthracene): 54
- TON ([6]; product Anthraquinone): 26
- TON ([6]; product Anthrone): 21
- E1/2 [7, 15]: 159 mV
- Keq [7, 16]: 1.1 × 10^−8
- ΔG° [7, 16]: 45 kJ
- E1/2 ([7]; no added halide, in mV): +159
- time for formation of the diferric oxo-bridged product on reaction with O2 ([8]; methanol): ~6 h
- solubility ([9]; DMF and DMSO): only slightly soluble
- solubility ([9]; other common polar and nonpolar aprotic solvents, including CH3CN, CH2Cl2, THF, Et2O, toluene and ethyl acetate): insoluble
- solubility ([9]; protic solvents): soluble
- Total TON ([10]; O2, [Fe] 9.6 μM): 520
- Total TON ([10]; O2, [Fe] 9.6 μM + TEMPO): 414
- TON ([10]; O2, [Fe] 9.6 μM + TEMPO (6 × 10^4 excess), product Cyclohexene oxide): 53
- TON ([10]; O2, [Fe] 9.6 μM + TEMPO, product 2-Cyclohexen-1-ol): 240
- TON ([10]; O2, [Fe] 9.6 μM + TEMPO, product 2-Cyclohexen-1-one): 60
- TON ([10]; O2, [Fe] 9.6 μM, product 2-Cyclohexen-1-ol): 249
- TON ([10]; O2, [Fe] 9.6 μM, product 2-Cyclohexen-1-one): 70
- TON ([10]; O2, [Fe] 9.6 μM, product Cyclohexene oxide): 132
- k15 ([11]; methanol, −85° C.): 9.6 M⁻¹ s⁻¹ and 10 ± 0.2 M⁻¹ s⁻¹
- k16 ([11]; methanol, −85° C.): 1.7 s⁻¹ and 1.7 ± 0.5 s⁻¹
- k17 ([11]; methanol, −85° C.): 0.53 s⁻¹ and 0.5 ± 0.1 s⁻¹
- ΔH^‡ of k15 ([11]; −85 to −70° C.): 8.6 ± 0.48 kcal/mol
- ΔH^‡ of k16 ([11]; −85 to −70° C.): 12 ± 1.2 kcal/mol
- ΔH^‡ of k17 ([11]; −85 to −70° C.): 11.2 ± 1.4 kcal/mol
- ΔS^‡ of k16 ([11]; −85 to −70° C.): 31.3±23 J mol^−1 K^−1 and 31 ± 23 J mol^−1 K^−1
- ΔS^‡ of k17 ([11]; −85 to −70° C.): 3 ± 1 J mol^−1 K^−1
- k15 ([12]; methanol, −85° C.): 45.3 M⁻¹ s⁻¹ and 45 ± 5 M⁻¹ s⁻¹
- k16 ([12]; methanol, −85° C.): 12 ± 1 s⁻¹
- k17 ([12]; methanol, −85° C.): 1.2 ± 0.1 s⁻¹
- ΔH^‡ of k15 ([12]; −85 to −70° C.): 8.37 ± 0.48 kcal/mol
- ΔH^‡ of k16 ([12]; −85 to −70° C.): 10 ± 2.2 kcal/mol
- ΔH^‡ of k17 ([12]; −85 to −70° C.): 9.08 ± 0.24 kcal/mol
- ΔS^‡ of k16 ([12]; −85 to −70° C.): 1.5 ± 0.9 J mol^−1 K^−1
- ΔS^‡ of k17 ([12]; −85 to −70° C.): 36.9±15 J mol^−1 K^−1 and 37 ± 15 J mol^−1 K^−1

Compound: CN(CC(=O)[O-])Cc1ccccn1.O=C([O-])CCC(=O)C(=O)[O-].[Fe+2] [[Fe^II(N2O1py)(αKG)]]
- turnover number (equivalents of formaldehyde per iron center) ([3]; N2O1py system, iron complex 1.0 μM, five equivalents [Na][αKG], O2, 60 min): 33
- turnover number (equivalents of formaldehyde per equivalent of iron) ([3]; N2O1py system, iron complex 100 μM, five equivalents [Na][αKG], O2, 60 min): 0.7
- time for reaction with O2, in words ([8]; αKG adduct): within minutes

Compound: CN(C)CCN(C)CC(=O)[O-].[Cl-].[Cl-].[Cl-].[Fe+3] [Fe^III N2O1, [Fe^III(N2O1)(Cl)3]]
- E1/2 ([7]; no added halide, in mV): +136

Compound: CN(CC(=O)O)Cc1ccccn1 [[H2N2O1py]^+, 2-(methyl(pyridine-1-ium-2-ylmethyl)ammonio)acetate]
- estimated pKa, carboxylic acid [13]: ~4.8
- estimated pKa, pyridinium [13]: ~5.2
- estimated pKa, tertiary ammonium [13]: ~10

Compound: C#Cc1ccnc(CN(C)CC(=O)[O-])c1.CC[NH+](CC)CC.CO.[Cl-].[Cl-].[Fe+2] [[Fe^II(N2O1py-alkyne)], [C6H16N][Fe^II(N2O1-alkyne)(MeOH)(Cl)2]]
- E1/2 [7, 15]: 270 mV

Compound: N#C[N-]C#N.N#C[N-]C#N.N#C[N-]C#N.N#C[N-]C#N.N#C[N-]C#N.[Cl-].[Fe+2] [[Fe^II(dca)5Cl]^4−]
- second order rate constant k of NO binding [2]: 1.7e+07 M⁻¹ s⁻¹

Compound: CN(C)CCN(C)CC(=O)[O-].CO.N#Cc1ccc(C(=O)C(=O)[O-])cc1.[Fe+2] [compound 25, [Fe^II(N2O1)(p-CN-BF)(CH3OH)]]
- k′1 [14]: 8.7 ± 1.2 s⁻¹
- k′2 [14]: 140 ± 12 M⁻¹ s⁻¹
- k′3 [14]: 60 ± 5 s⁻¹
- k′4 (k′4obs) [14]: 0.2 ± 0.02 s⁻¹

Compound: O.O.O.O.O.O.[Fe+2] [[Fe(H2O)6)]^2+]
- second order rate constant k of NO binding [2]: 1.42e+06 M⁻¹ s⁻¹

Compound: CN(C)CCN(C)CC(=O)[O-].CO.Nc1ccc(C(=O)C(=O)[O-])cc1.[Fe+2] [compound 26, [Fe^II(N2O1)(p-NH2-BF)(CH3OH)]]
- k′1 [14]: 8.5 ± 1.8 s⁻¹
- k′2 [14]: 2700 ± 300 M⁻¹ s⁻¹
- k′3 [14]: 1.0 ± 0.2 s⁻¹
- k′4 (k′4obs) [14]: 1.7 ± 0.4 s⁻¹

Compound: CN(C)c1cccc2cccc([NH+](C)C)c12.CN(CC(=O)[O-])Cc1ccccn1.[Cl-].[Cl-].[Cl-].[Fe+3] [Fe^III N2O1py, [PSH][Fe^III(N2O1py)(Cl)3]]
- ΔE ([7]; no added halide): 128 mV
- E1/2 ([7]; no added halide, in mV): +189

From patent US10428043B2, “Green oxidation catalytic system” (TRUSTEES OF BOSTON UNIVERSITY, priority 2014, dated 2019)
